These results are taken from ChEMBL document CHEMBL5316325, “Design and Synthesis of 3-Hydroxy-pyridin-4(1H)-ones-Ciprofloxacin Conjugates as Dual Antibacterial and Antibiofilm Agents against Pseudomonas aeruginosa” (J Med Chem, 2023).

≈ marks a conversion by molar mass, not a printed value. Calls of active or inactive are those of the source. The calls are words filed in the database; no cut-off is given here. A value given as a limit tells only on which side of the number the result lay.

The test system of data set [1] is Pseudomonas aeruginosa. As to the kind of experiment: Antibiofilm activity against Pseudomonas aeruginosa PAO1 in ABTGC medium assessed as biofilm biomass at 1/4 times MIC incubated for 24 hrs by crystal violet staining based assay relative to control. Format: functional.
Data set [2] concerns Pseudomonas aeruginosa. As to the kind of experiment: Antibacterial activity against Pseudomonas aeruginosa ATCC 27853 in MHB medium assessed as bacterial growth inhibition by CLSI based broth microdilution method. The class given is functional. In general terms: Broth dilution looks for growth in wells or tubes with falling amounts of substance.
The subject of data set [3] is Pseudomonas aeruginosa. Description: Antibacterial activity against Pseudomonas aeruginosa PAO1 in MHB medium assessed as bacterial growth inhibition by CLSI based broth microdilution method. Format: functional.
Data set [4] has as its system Pseudomonas aeruginosa. Description: Antibacterial activity against Pseudomonas aeruginosa FB in MHB medium assessed as bacterial growth inhibition by CLSI based broth microdilution method. The class given is functional.
Data set [5] has as its system Pseudomonas aeruginosa. Description: Antibacterial activity against Pseudomonas aeruginosa 1167 in MHB medium assessed as bacterial growth inhibition by CLSI based broth microdilution method. Format: functional.
For data set [6], the system named is Pseudomonas aeruginosa. Description: Antibacterial activity against Pseudomonas aeruginosa 1121 in MHB medium assessed as bacterial growth inhibition by CLSI based broth microdilution method. Format: functional.
Data set [7] concerns Pseudomonas aeruginosa. Description: Antibacterial activity against Pseudomonas aeruginosa 1129 in MHB medium assessed as bacterial growth inhibition by CLSI based broth microdilution method. The class given is functional.
The next data set has as its system Escherichia coli. Description: Antibacterial activity against Escherichia coli ATCC 25922 in MHB medium assessed as bacterial growth inhibition by CLSI based broth microdilution method. The class given is functional.
Another data set relates to Klebsiella pneumoniae. Description: Antibacterial activity against Klebsiella pneumoniae ATCC 700603 in MHB medium assessed as bacterial growth inhibition by CLSI based broth microdilution method. Format: functional.
The test system of data set [8] is Staphylococcus aureus. As to the kind of experiment: Antibacterial activity against Staphylococcus aureus ATCC 25923 in MHB medium assessed as bacterial growth inhibition by CLSI based broth microdilution method. Format: functional.
In data set [9] the test system is Staphylococcus aureus. Description: Antibacterial activity against methicillin-resistant Staphylococcus aureus ATCC 515992 in MHB medium assessed as bacterial growth inhibition by CLSI based broth microdilution method. Format: functional.
For data set [10], the system named is Pseudomonas aeruginosa. As to the kind of experiment: Antibacterial activity against Pseudomonas aeruginosa PAO1 in ABTGC medium assessed as bacterial growth inhibition. Format: functional.
The subject of data set [11] is Pseudomonas aeruginosa. Description: Antibiofilm activity against Pseudomonas aeruginosa PAO1 in ABTGC medium assessed as biofilm biomass at 1/2 times MIC incubated for 24 hrs by crystal violet staining based assay relative to control. Format: functional.
Data set [12] relates to Pseudomonas aeruginosa. As to the kind of experiment: Antibiofilm activity against Pseudomonas aeruginosa PAO1 in ABTGC medium assessed as biofilm biomass at MIC incubated for 24 hrs by crystal violet staining based assay relative to control. Format: functional.
The subject of data set [13] is Pseudomonas aeruginosa. As to the kind of experiment: Antibiofilm activity against Pseudomonas aeruginosa PAO1 assessed as decrease in rhamnolipid level at 15 uM by absorbance based assay. The class given is functional, organism-based.
Data set [14] deals with Pseudomonas aeruginosa. As to the kind of experiment: Antibiofilm activity against Pseudomonas aeruginosa PAO1 assessed as decrease in pyocyanin level at 15 uM by absorbance based assay. The class given is functional, organism-based.
The subject of data set [15] is Pseudomonas aeruginosa. Description: Antibiofilm activity against Pseudomonas aeruginosa PAO1 assessed as inhibition of bacterial motility at 15 uM incubated for 16 hrs relative to control. The class given is functional, organism-based.
In data set [16] the test system is Pseudomonas aeruginosa. As to the kind of experiment: Antibiofilm activity against Pseudomonas aeruginosa PAO1 assessed as biofilm eradication at 4 times MIC incubated for 24 hrs by crystal violet staining based assay relative to control. Format: functional.
The test system of data set [17] is Pseudomonas aeruginosa. As to the kind of experiment: Antibiofilm activity against Pseudomonas aeruginosa PAO1 assessed as biofilm eradication at high concentration incubated for 36 hrs by crystal violet staining based assay. The class given is functional, organism-based.
Data set [18] concerns Pseudomonas aeruginosa. As to the kind of experiment: Antibiofilm activity against Pseudomonas aeruginosa PAO1 in ABTGC medium assessed as biofilm biomass at MIC incubated for 24 hrs in presence of 10 uM Fe by crystal violet staining based assay relative to control. The class given is functional.
The next data set has as its system HEK293. Description: Cytotoxicity against HEK293 cells at 50 to 100 uM incubated for 48 hrs by MTT assay relative to control. Format: toxicity, cell-based. The conditions noted are these: human, hek293, 48 h, dose 50-100 µM.
A short description of data set [19]: Toxicity in Caenorhabditis elegans assessed as survival rate at 50 to 100 uM measured after 48 hrs by bright field microscopy. The conditions noted are these: dose 50-100 µM.
Data set [20] has as its system Pseudomonas aeruginosa. As to the kind of experiment: Antibacterial activity against Pseudomonas aeruginosa assessed as inhibition of virulence release at 4 ug/ml. Particulars: dose 4.0 µg/ml. The class given is functional, organism-based.

For `O=C(CCC(=O)N1CCN(c2cc3c(cc2F)c(=O)c(C(=O)O)cn3C2CC2)CC1)NCc1ccccc1`, the values for the Activity in the data set on Pseudomonas aeruginosa [1], in the data set with Pseudomonas aeruginosa [11] and with Pseudomonas aeruginosa [12] were 102.4%, 97.3% and 218.8%, respectively. The MIC with Pseudomonas aeruginosa [2], in the data set on Pseudomonas aeruginosa [3], in the data set with Pseudomonas aeruginosa [4], in the data set on Pseudomonas aeruginosa [5], with Pseudomonas aeruginosa [6] and in the data set on Pseudomonas aeruginosa [7] was over 200 µM each time. In addition, the MIC with Escherichia coli is 15.4 µM (≈ 8 µg/mL); in the data set on Klebsiella pneumoniae, over 200 µM; in the data set with Staphylococcus aureus [8], 30.7 µM (≈ 16 µg/mL); in the data set on Staphylococcus aureus [9], over 200 µM; in the data set with Pseudomonas aeruginosa [10], over 200 µM. Further, the outcome with Pseudomonas aeruginosa [13] and in the data set on Pseudomonas aeruginosa [14] was inactive. In addition, in the data set on Pseudomonas aeruginosa [15], the inhibition entry is “inactive”.
With `O=C(O)c1cn(C2CC2)c2cc(N3CCNCC3)c(F)cc2c1=O` [CIPROFLOXACIN], the Activity with Pseudomonas aeruginosa [12] is recorded as 109.5%; with Pseudomonas aeruginosa [16], 23.6%; in the data set on Pseudomonas aeruginosa [18], 109.5%; with HEK293 it was 40%; in data set [19], “Non-Toxic”. In the data set on Pseudomonas aeruginosa [17], the result was inactive.
Consider `Cc1cc(=O)c(O)c(CNC(=O)CCCC(=O)N2CCN(c3cc4c(cc3F)c(=O)c(C(=O)O)cn4C3CC3)CC2)n1C`, for which the Activity with Pseudomonas aeruginosa [1] is 84.1%; in the data set on Pseudomonas aeruginosa [11], 116.8%; in the data set with Pseudomonas aeruginosa [12], 39.5%. Further, the MIC turned out to be 0.86 µM (≈ 0.512 µg/mL) in the data set with Pseudomonas aeruginosa [2]; 6.72 µM (≈ 4 µg/mL) in the data set with Pseudomonas aeruginosa [3]; 13.4 µM (≈ 8 µg/mL) with Pseudomonas aeruginosa [4]; 6.72 µM (≈ 4 µg/mL) in the data set with Pseudomonas aeruginosa [5]; 6.72 µM (≈ 4 µg/mL) in the data set with Pseudomonas aeruginosa [6]; 13.4 µM (≈ 8 µg/mL) with Pseudomonas aeruginosa [7]. Further, the MIC in the data set with Escherichia coli is 0.21 µM (≈ 0.125 µg/mL); in the data set with Klebsiella pneumoniae, 26.9 µM (≈ 16 µg/mL); in the data set on Staphylococcus aureus [8], 53.7 µM (≈ 32 µg/mL); in the data set with Staphylococcus aureus [9] it was over 200 µM; in the data set with Pseudomonas aeruginosa [10], 128 µM (≈ 76.2 µg/mL).
Take `Cc1cc(=O)c(O)c(CNC(=O)CCC(N)(CCC(=O)NCc2c(O)c(=O)cc(C)n2C)CCC(=O)NCc2c(O)c(=O)cc(C)n2C)n1C`: the Activity with Pseudomonas aeruginosa [1] stood at 99.8%; with Pseudomonas aeruginosa [11], 346.5%; in the data set with Pseudomonas aeruginosa [12], 315.1%. Besides, the MIC in the data set with Pseudomonas aeruginosa [2], in the data set with Pseudomonas aeruginosa [3], with Pseudomonas aeruginosa [4], in the data set with Pseudomonas aeruginosa [5], with Pseudomonas aeruginosa [6] and in the data set on Pseudomonas aeruginosa [7] was over 200 µM in each case. The MIC in the data set on Escherichia coli, with Klebsiella pneumoniae, with Staphylococcus aureus [8], in the data set with Staphylococcus aureus [9] and in the data set with Pseudomonas aeruginosa [10] was over 200 µM throughout. In addition, the inhibition result in the data set with Pseudomonas aeruginosa [20] was “inactive”.
Take `Cc1cc(=O)c(O)c(CNC(=O)CCC(CCC(=O)NCc2c(O)c(=O)cc(C)n2C)(CCC(=O)NCc2c(O)c(=O)cc(C)n2C)NC(=O)CCC(=O)N2CCN(c3cc4c(cc3F)c(=O)c(C(=O)O)cn4C3CC3)CC2)n1C`: the Activity in the data set with Pseudomonas aeruginosa [1] was determined as 211.1%; in the data set on Pseudomonas aeruginosa [11], 20.9%; with Pseudomonas aeruginosa [12], 20.7%. Moreover, the MIC with Pseudomonas aeruginosa [2] came to 7.2 µM (≈ 8 µg/mL); in the data set on Pseudomonas aeruginosa [3], 14.4 µM (≈ 16 µg/mL); in the data set with Pseudomonas aeruginosa [4] it was 28.8 µM (≈ 32 µg/mL); in the data set with Pseudomonas aeruginosa [5], 14.4 µM (≈ 16 µg/mL); in the data set on Pseudomonas aeruginosa [6] it was 28.8 µM (≈ 32 µg/mL); with Pseudomonas aeruginosa [7] it was 57.6 µM (≈ 64 µg/mL). Besides, the MIC in the data set on Escherichia coli is 0.22 µM (≈ 0.244 µg/mL); in the data set with Klebsiella pneumoniae it was 14.4 µM (≈ 16 µg/mL); with Staphylococcus aureus [8], 14.4 µM (≈ 16 µg/mL); with Staphylococcus aureus [9], over 200 µM; in the data set on Pseudomonas aeruginosa [10] it was 115 µM (≈ 128 µg/mL).
Regarding `O=C(CCC(=O)N1CCN(c2cc3c(cc2F)c(=O)c(C(=O)O)cn3C2CC2)CC1)NCc1cc(=O)c(O)cn1O`, the Activity is on record as 48.9% in the data set with Pseudomonas aeruginosa [1], 54.2% in the data set on Pseudomonas aeruginosa [11] and 137% in the data set on Pseudomonas aeruginosa [12]. The MIC with Pseudomonas aeruginosa [2] came out at 7.02 µM (≈ 4 µg/mL); in the data set on Pseudomonas aeruginosa [3], 1.76 µM (≈ 1 µg/mL); with Pseudomonas aeruginosa [4], 7.02 µM (≈ 4 µg/mL); in the data set on Pseudomonas aeruginosa [5], 3.51 µM (≈ 2 µg/mL); with Pseudomonas aeruginosa [6], 7.02 µM (≈ 4 µg/mL); with Pseudomonas aeruginosa [7] it was 7.02 µM (≈ 4 µg/mL). Besides, the MIC was 0.22 µM (≈ 0.125 µg/mL) with Escherichia coli; 14.1 µM (≈ 8 µg/mL) in the data set on Klebsiella pneumoniae; 28.1 µM (≈ 16 µg/mL) in the data set with Staphylococcus aureus [8]; over 200 µM in the data set on Staphylococcus aureus [9]; 14.1 µM (≈ 8 µg/mL) in the data set on Pseudomonas aeruginosa [10].
As for `Cc1cc(=O)c(O)cn1CCCn1cc(CCC(=O)N2CCN(c3cc4c(cc3F)c(=O)c(C(=O)O)cn4C3CC3)CC2)nn1`, the Activity in the data set on Pseudomonas aeruginosa [1] was found to be 97.6%; in the data set with Pseudomonas aeruginosa [11], 127.7%; with Pseudomonas aeruginosa [12], 71.7%. Moreover, the MIC in the data set on Pseudomonas aeruginosa [2], in the data set on Pseudomonas aeruginosa [3], in the data set on Pseudomonas aeruginosa [4], in the data set with Pseudomonas aeruginosa [5], in the data set on Pseudomonas aeruginosa [6] and in the data set on Pseudomonas aeruginosa [7] was 103 µM (≈ 64 µg/mL) in each case. Besides, the MIC is 51.6 µM (≈ 32 µg/mL) in the data set on Escherichia coli; over 200 µM with Klebsiella pneumoniae; over 200 µM in the data set on Staphylococcus aureus [8]; over 200 µM with Staphylococcus aureus [9]; over 200 µM with Pseudomonas aeruginosa [10].

The MIC is the least concentration at which growth counts as inhibited.
